According to PubChem BioAssay AID1963825 (Molecular Pharmacology Branch, DTP, NCI, 2024):
Values joined by “and” are separate entries in the source; they are usually repeats but may differ in a detail not shown here. Equal values may be shown once.

Assay: Anticancer human tumor 997537-175-T-J1-PDC patient-derived colon adenocarcinoma cell line growth inhibition [POLQ]
Conditions: 997537-175-T-J1-PDC complex spheroid viability, combination with POLQ inhibitors; for viability, T/C: stronger effect = lower value
Procedure: Multicellular complex tumor spheroid response to Polymerase (POL) inhibitors (novobiocin, ART-558, RP6685) in combination with a variety of drugs and investigational agents in selected tumor cell lines
The POL inhibitors (novobiocin, ART-558, and RP6685) were evaluated both individually and in combination with standard of care and investigational anticancer small molecules within a complex spheroid model of solid tumors. . Complex spheroids include a stromal component modeled by human endothelial cells (HUVEC) and fibroblasts modeled by human mesenchymal stem cells (MSCs). The concentration ranges selected for each drug and investigational agent were based upon clinically achievable concentrations if the clinical Cmax of the agent was known.
Compounds. The drugs and investigational agents: novobiocin (NSC847541), ART-558 (NSC835418), RP-6685 (NSC848927), peposertib (NSC802822), ceralasertib (NSC780249), elimusertib (NSC800525), camonsertib (NSC841442), AZD-1390 (NSC803789), olaparib (NSC753686), talazoparib (NSC767125), rucaparib (NSC756644), sotorasib (NSC818433), MRTX-1133 (NSC836407), SN-38 (NSC673596), topotecan (NSC609699), epotoside (NSC141540), doxorubicin (NSC123127), gemcitabine (NSC613327), 5-fluorouracil (NSC19893), paclitaxel (NSC125973), vemurafenib (NSC761431), MSA-2 (NSC828583), SN-011 (NSC837082), adavosertib (NSC754352), prexasertib (NSC758257), carboplatin (NSC241240) and oxaliplatin (NSC266046), were obtained from the National Cancer Institute (NCI) Developmental Therapeutics Program Chemical Repository (21). The FDA-approved anticancer drug set is available from the Developmental Therapeutics Program at https://dtp.cancer.gov/organization/dscb/obtaining/. […] The stock solutions were prepared in dimethyl sulfoxide (DMSO, Sigma-Aldrich, St. Louis, MO, cat. D2650), except for the platinum compounds which were prepared in saline (Quality Biological, Gaithersburg, MD, cat. 114-055-101), at 800-fold the tested concentration and stored at -70 degrees C prior to their use. All drugs and investigational agents were tested over a range starting from a high concentration at or near the clinical Cmax and decreasing in half-log increments. If the clinical Cmax for an agent had not been determined, the highest concentration tested was 10 microM, except for SN-38, which was tested at a high concentration of 1 microM.
Cell Culture. All cells were maintained in an incubator at 37 degrees C and 5% CO2 with 95% humidity. The PDC lines were cultured according to standard operating procedures established by the NCI PDMR (https://pdmr.cancer.gov). Table 3 of the manuscript, lists the cell lines along with the number of the three cell types plated to form the mct-spheroids and media for tumor cell growth. After thawing, all PDC lines, except 997537-175-T-J1-PDC and 415267-285-R-J2-PDC, were cultured in Matrigel-coated flasks prepared with a working solution of 1X Ham's F-12 nutrient mix, without supplementation (Thermo Fisher Scientific, cat. 11765054), 100 U/mL penicillin-streptomycin (Thermo Fisher Scientific, cat. 15140122), and 2.5% Matrigel (Corning Inc., Corning, NY, cat. 354248) for the first three passages. The two PDC lines 997537-175-T-J1-PDC and 415267-285-R-J2-PDC were cultured on uncoated flasks. The 857933-349-R-J2-PDC line was cultured in 6C/Colon 1B media containing advanced DMEM/F-12 (Thermo Fisher Scientific, cat. 12634028), 10 mM HEPES (Thermo Fisher Scientific, cat. 15630080), 1X GlutaMAX supplement (Thermo Fisher Scientific, cat. 35050061), 0.1 mg/mL primocin (InvivoGen, San Diego, CA, cat. ant-pm-2), 10% defined fetal bovine serum, heat inactivated (HyClone Laboratories Inc., Logan, UT, cat. SH30070.03HI), 50% L-WRN conditioned media (ATCC, cat. CRL-3276), 1.25 mM N-Acetyl-L-cysteine (Sigma-Aldrich, cat. A9165), 10 mM nicotinamide (Sigma-Aldrich, cat. N0636), 1X B-27 supplement (Thermo Fisher Scientific, cat. 17504044), 1X N-2 supplement (Thermo Fisher Scientific, cat. […]
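Note: luminescence signal used as a surrogate for viable cells; spheroids exposed to drugs for seven days before readout.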

`COc1cc(C2c3cc4c(cc3C(OC3OC5COC(C)OC5C(O)C3O)C3COC(=O)C23)OCO4)cc(OC)c1O` (centres undefined) + COC1C(OC(N)=O)C(O)C(Oc2ccc3c(O)c(NC(=O)c4ccc(O)c(CC=C(C)C)c4)c(=O)oc3c2C)OC1(C)C gave an IC50 (curve of first compound, second compound 0.0316 µM) greater than 10 µM, an IC50 (curve of first compound, second compound 0.1 µM) greater than 10 µM and an IC50 (curve of first compound, second compound 0.316 µM) greater than 10 µM. The IC50 (curve of first compound, second compound 1 µM) was greater than 10 µM, the IC50 (curve of first compound, second compound 3.16 µM) was greater than 10 µM and the IC50 (curve of first compound, second compound 10 µM) was greater than 10 µM. For the same molecule, the viability, T/C (second compound 0.0316 µM, first compound 0.0316 µM) was 99.8%, the viability, T/C (second compound 0.0316 µM, first compound 0.1 µM) was 95% and the viability, T/C (second compound 0.0316 µM, first compound 0.316 µM) was 93.1%. The viability, T/C (second compound 0.0316 µM, first compound 1 µM) was 89.9%, the viability, T/C (second compound 0.0316 µM, first compound 3.16 µM) was 74.7% and the viability, T/C (second compound 0.0316 µM, first compound 10 µM) was 67.3%. For the same molecule, the viability, T/C (second compound 0.1 µM, first compound 0.0316 µM) was 103%, the viability, T/C (second compound 0.1 µM, first compound 0.1 µM) was 114% and the viability, T/C (second compound 0.1 µM, first compound 0.316 µM) was 99.3%. For the same molecule, the viability, T/C (second compound 0.1 µM, first compound 1 µM) was 93.7%, the viability, T/C (second compound 0.1 µM, first compound 3.16 µM) was 60.2% and the viability, T/C (second compound 0.1 µM, first compound 10 µM) was 88.5%. For the same molecule, the viability, T/C (second compound 0.316 µM, first compound 0.0316 µM) was 97.3%, the viability, T/C (second compound 0.316 µM, first compound 0.1 µM) was 107% and the viability, T/C (second compound 0.316 µM, first compound 0.316 µM) was 99.2%. For the same molecule, the viability, T/C (second compound 0.316 µM, first compound 1 µM) was 108%, the viability, T/C (second compound 0.316 µM, first compound 3.16 µM) was 92.3% and the viability, T/C (second compound 0.316 µM, first compound 10 µM) was 53.3%. It also gave a viability, T/C (second compound 1 µM, first compound 0.0316 µM) of 93.5%, a viability, T/C (second compound 1 µM, first compound 0.1 µM) of 105% and a viability, T/C (second compound 1 µM, first compound 0.316 µM) of 110%. It also gave a viability, T/C (second compound 1 µM, first compound 1 µM) of 83.9%, a viability, T/C (second compound 1 µM, first compound 3.16 µM) of 88.8% and a viability, T/C (second compound 1 µM, first compound 10 µM) of 55.5%. It also gave a viability, T/C (second compound 3.16 µM, first compound 0.0316 µM) of 109%, a viability, T/C (second compound 3.16 µM, first compound 0.1 µM) of 107% and a viability, T/C (second compound 3.16 µM, first compound 0.316 µM) of 87.7%. For the same molecule, the viability, T/C (second compound 3.16 µM, first compound 1 µM) was 104%, the viability, T/C (second compound 3.16 µM, first compound 3.16 µM) was 63.5% and the viability, T/C (second compound 3.16 µM, first compound 10 µM) was 67.8%. The viability, T/C (second compound 10 µM, first compound 0.0316 µM) was 106%, the viability, T/C (second compound 10 µM, first compound 0.1 µM) was 107% and the viability, T/C (second compound 10 µM, first compound 0.316 µM) was 108%. For the same molecule, the viability, T/C (second compound 10 µM, first compound 1 µM) was 100%, the viability, T/C (second compound 10 µM, first compound 3.16 µM) was 84.9% and the viability, T/C (second compound 10 µM, first compound 10 µM) was 66.1%.
With `COc1cccc(OCCCN)c1-c1cc(Nc2cnc(C#N)cn2)n[nH]1` the viability, T/C (compound 0.00316 µM) was 96.8% and 107% and 96.1%, the viability, T/C (compound 0.01 µM) was 106% and 98.4% and 92.4% and the viability, T/C (compound 0.0316 µM) was 54.1% and 72% and 72.3%. For the same molecule, the viability, T/C (compound 0.1 µM) was 52.4% and 57.1% and 43.6%, the viability, T/C (compound 0.316 µM) was 24.1% and 36.5% and 25.2% and the viability, T/C (compound 1 µM) was 25.2% and 27.3% and 13.4%. The IC50 (curve of compound) was 0.0658 µM and 0.135 µM and 0.0801 µM.
